Source: EP2924040A1, “2-Amino-1-(o-tolyl)pyrrolo[3,2-b]quinoxaline-3-carboxamide derivates” (Universität Zürich, priority 2014, dated 2015)

Columns and labels:
Breast HS578T = test: NCI DTP Human Tumor Cell Line Screen (SRB); format: cell-based; conditions: Hs-578T, 48 h
Experimental: (§1) Compound 2 was further screened against cancer cell lines by the National Cancer Institute (NCI). This screen was performed as per the description provided at http://dtp.nci.nih.gov/branches/btb/ivclsp.html. "The NCI 60 panel cell lines were grown in RPMI 1640 medium supplemented with 5% (v/v) fetal bovine serum and 2 mM L-glutamine at 37° C, 5 % CO2, 95 % air and 100 % relative humidity. Cells were seeded at 5,000 - 40,000 cells/well depending on their doubling time. After 24 hours of incubation, DMSO stock solutions of the compounds (400X) were added at 5 different concentrations (in […] serial dilutions). After 48 h cells were fixed with trichloroacetic acid (10% or 16% final concentration for adherent cells and suspension cells respectively) and incubated for 60 minutes at 4°C. After discarding the supernatant, plates were washed with water (5x) and air dried. Sulforhodamine B (SRB) solution (100 µl) at 0.4 % (w/v) in 1% acetic acid was added to each well and incubated for 10 minutes at 4°C, followed by washing with 1% acetic acid (5x) and air drying. The bound stain was solubilized with 10mM trizma base and determined by absorbance measurement on an automated plate reader at a wavelength of 515 nm. The percentage growth inhibition was calculated as followed, being Tz time zero measurements, C control growth measurements and Ti test growth experiments in the present of the drug. [(Ti-Tz)/(C-Tz)] x 100 for concentrations for which Ti>/=Tz [(Ti-Tz)/Tz] x 100 for concentrations for which Ti<Tz.
(§2) Three dose response parameters were calculated for each cell line. Growth inhibition of 50% (GI50) is calculated from [(Ti-Tz)/(C-Tz)] x 100 = 50 and corresponds to the drug concentration required in order to reduce by 50% the net protein increase in comparison to the control experiments. Total growth inhibition (TGI) is calculated from Ti = Tz. The LC50 indicates the drug concentration needed to reduce by 50% the measured protein at the end of the drug treatment as compared to that of the beginning and is derived from [(Ti-Tz)/Tz] x 100 = -50." Table 2: GI50 in a selection of cancer cell lines of the National Cancer Institute for compound 2

Breast MDA-MB-231 = test: NCI DTP Human Tumor Cell Line Screen (SRB); format: cell-based; conditions: Breast MDA-MB-231, 48 h
Experimental: as §1, §2

CNS SNB75 = test: NCI DTP Human Tumor Cell Line Screen (SRB); format: cell-based; conditions: SNB-75, CNS SNB75, 48 h
Experimental: as §1, §2

Colon HT29 = test: NCI DTP Human Tumor Cell Line Screen (SRB); format: cell-based; conditions: HT-29, Colon HT29, 48 h
Experimental: as §1, §2

Leukemia K562 = test: NCI DTP Human Tumor Cell Line Screen (SRB); format: cell-based; conditions: Leukemia K562, 48 h
Experimental: as §1, §2

NSCLC HOP92 = test: NCI DTP Human Tumor Cell Line Screen (SRB); format: cell-based; conditions: HOP-92, NSCLC HOP92, 48 h
Experimental: as §1, §2

Renal A498 = test: NCI DTP Human Tumor Cell Line Screen (SRB); format: cell-based; conditions: Renal A498, 48 h
Experimental: as §1, §2

Renal RXF393 = test: NCI DTP Human Tumor Cell Line Screen (SRB); format: cell-based; conditions: RXF 393, Renal RXF393, 48 h
Experimental: as §1, §2

[1] = system: MDA-MB-231 breast cancer cells; test: Efficacy in a Xenograft Mouse Model; format: in vivo; conditions: female NCr Nu/Nu mice, subcutaneous MDA-MB-231, 50 mg/kg oral twice daily, 21 days
Experimental: The effect of compound 2 on MDA-MB-231 breast cancer cells was examined. The breast cancer cells were implanted subcutaneously in xenograft mouse models and the development of the body weight and the tumor volume were observed over time (21 days). Group 1 is the vehicle control group consisting of 9 animals, whereas group 2 consisted of 9 animals receiving 50 mg/kg of compound 2 twice-daily.
9 week old female NCr Nu/Nu mice (Charles River Laboratories, Inc.) were injected at the flank with 5x10^6 MDA-MB-231 cells. Once tumor volume reached 108-126 mm^3 (as measured by digital caliper) mice were randomized into a treatment and vehicle-control group of 9 animals each. The treatment group received oral doses of 50 mg/kg of compound 2 twice daily for 21 days (with the exception of a single dose on the first day), formulated as a homogeneous suspension in DMSO/1% methylcellulose (5/95, v/v). The control group received the same formulation but excluding compound 2. Tumor volume of all mice was evaluated bi-weekly up to day 19.

protein kinases = test: Selectivity profile with respect to protein kinases; format: binding; conditions: kinase groups TK, TKL, STE, CK1, AGC, CAMK, CMGC, other (Fig. 1)
Description: A selectivity profile of compound 2 with respect to protein kinases is depicted in Figure 1. The protein kinases are selected from tyrosine kinases (TK), tyrosine kinase-like kinases (TKL), STE-Group, Cell Kinases 1 (CK1), AGC-Group, Calmodulin/Calcium regulated kinases (CAMK), CMGC Group and other kinases. The larger the respective dot, the higher the binding affinity of the compound to the respective protein kinases. […] As per Kawasaki Y. and Freire E. in Drug Discovery Today, 2011 November; 16(21-22): 985-990, "[e]xtremely high affinity and selectivity are two of the most sought-after properties of drug molecules."

[2] = system: NCI-60 panel of cancer cell-lines; test: NCI-60 DTP Human Tumor Cell Line Screen at 5 doses (whole panel); format: cell-based; conditions: SNB-75, K562, A498, LOX IMV1, HS 578T and MDA-MB-231 among others (Fig. 5)
Experimental: Compound 2 was screened by the National Cancer Institute (NCI) at 5 doses on the NCI-60 DTP Human Tumor Cell Line Screen.
as §1, with “After discarding the supernatant, plates were washed with water (5x) and air dried. Sulforhodamine B (SRB) solution (100 µl) at 0.4 % (w/v) in 1% acetic acid was added to each well and incubated for 10 minutes at 4°C, followed by washing with 1% acetic acid (5x) and air drying.” left out, “[(Ti-Tz)/(C-Tz)] x 100 for concentrations for which Ti>/=Tz [(Ti-Tz)/Tz] x 100 for concentrations for which Ti<Tz.” left out
Three dose response parameters were calculated for each cell line. […] Total growth inhibition (TGI) is calculated from Ti = Tz. […]

Cc1ccc(O)cc1-n1c(N)c(C(N)=O)c2nc3ccccc3nc21 [Compound 2, 2-Amino-1-(5-hydroxy-2-methylphenyl)-1H-pyrrolo[2,3-b]quinoxaline-3-carboxamide]
GI50 (Breast HS578T): 100 nM
GI50 (Breast MDA-MB-231): 317 nM
GI50 (CNS SNB75): 28 nM
GI50 (Colon HT29): 244 nM
GI50 (Leukemia K562): 229 nM
GI50 (NSCLC HOP92): 152 nM
GI50 (Renal A498): 162 nM
GI50 (Renal RXF393): 361 nM
group-median tumor volume [1]: remarkable group-median tumor volume control
selectivity profile (binding affinity) with respect to protein kinases (protein kinases): selectivity towards tyrosine kinases (TK)
potency (GI50 and/or TGI and/or LC50) relative to select cell-lines [2]: high potency
